We go through 25 compounds from patent publication US10106508B2, “Quinazoline heterocyclic compound as EGFR kinase inhibitor and preparation and application thereof” (BEIJING SCITECH-MQ PHARMACEUTICALS LIMITED, priority 2015, dated 2018).

In assay [1] the target is EGFR (WT) (Homo sapiens (Human), UniProt P00533). As to the kind of experiment: Kinase-Glo luminescent kinase assay, EGFR tyrosine kinase inhibitory activity (WT). The class given is biochemical. Particulars: EGFR wild type. As to the method: (§1) Determination of the Compound Inhibitory Activity Against EGFR Kinase
Sequence of EGFR (WT) (P00533 25-1210): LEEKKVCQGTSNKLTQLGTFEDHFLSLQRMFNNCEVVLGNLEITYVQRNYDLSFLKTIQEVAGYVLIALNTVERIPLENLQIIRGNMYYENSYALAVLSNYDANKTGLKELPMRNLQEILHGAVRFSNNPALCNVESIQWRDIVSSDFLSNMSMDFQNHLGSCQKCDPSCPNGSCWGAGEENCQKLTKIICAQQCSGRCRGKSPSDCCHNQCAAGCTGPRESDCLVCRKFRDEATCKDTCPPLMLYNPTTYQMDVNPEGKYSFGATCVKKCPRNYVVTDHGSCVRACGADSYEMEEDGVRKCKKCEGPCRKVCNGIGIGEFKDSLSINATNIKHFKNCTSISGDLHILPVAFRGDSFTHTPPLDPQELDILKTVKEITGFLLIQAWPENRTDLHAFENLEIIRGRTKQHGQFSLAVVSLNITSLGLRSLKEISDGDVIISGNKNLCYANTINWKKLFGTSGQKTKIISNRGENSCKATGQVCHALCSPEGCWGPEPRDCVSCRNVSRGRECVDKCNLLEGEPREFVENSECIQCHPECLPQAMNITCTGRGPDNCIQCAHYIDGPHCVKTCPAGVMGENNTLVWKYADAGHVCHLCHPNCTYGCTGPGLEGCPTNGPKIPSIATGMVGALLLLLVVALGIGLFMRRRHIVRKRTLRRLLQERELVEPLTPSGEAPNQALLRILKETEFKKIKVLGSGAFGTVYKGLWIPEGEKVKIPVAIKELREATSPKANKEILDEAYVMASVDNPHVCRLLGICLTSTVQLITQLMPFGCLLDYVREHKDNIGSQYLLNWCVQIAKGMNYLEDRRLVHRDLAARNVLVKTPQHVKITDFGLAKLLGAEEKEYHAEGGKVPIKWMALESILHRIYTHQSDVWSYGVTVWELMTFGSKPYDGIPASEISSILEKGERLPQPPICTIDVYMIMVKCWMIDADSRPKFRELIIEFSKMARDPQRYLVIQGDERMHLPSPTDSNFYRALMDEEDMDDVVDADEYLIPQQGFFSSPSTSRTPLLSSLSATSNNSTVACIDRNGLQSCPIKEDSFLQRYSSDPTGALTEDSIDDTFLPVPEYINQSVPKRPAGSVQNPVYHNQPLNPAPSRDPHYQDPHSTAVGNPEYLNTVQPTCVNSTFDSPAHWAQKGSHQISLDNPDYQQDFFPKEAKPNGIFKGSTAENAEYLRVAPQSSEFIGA
(§2) The inhibitory activity of compounds in formula (I) and (II) were determined using Kinase-Glo luminescent kinase assay. The receptor tyrosine kinase EGFR was tested and Gefitinib, a known EGFR inhibitor, was chosen as the positive control compound. The method is detailed below:
(§3) The sample compounds were dissolved in DMSO and diluted it to 500 μM concentration with DMSO and transferred to a dose plate. The compounds were serially diluted with DMSO in 5 fold concentration. Then each concentration was diluted 10-fold with the reaction buffer to get a 10× final concentration. Transfer the compounds with concentrations ranging from 0.003 μM to 50 μM to EGFR assay plate to determine their kinase activity with a dose of 1 μL/well.
(§4) The positive control compound Gifitinib was dissolved in DMSO as 10 mM stock solution and diluted it to 100 μM concentration with DMSO. The control compound was serially diluted with DMSO in 5 fold concentration. Then each concentration was diluted 10-fold with the reaction buffer to get a 10× final concentration.
(§5) For the HPE (hundred percent effect: No kinase and no compound, but containing ATP, substrate and 1% DMSO) and ZPE (zero percent effect: No compound but containing kinase, ATP, substrate and 1% DMSO) wells, dilute 2 μL DMSO 10-fold with reaction buffer to obtain 10% DMSO solution. Then transfer it to the assay plat, 1 μL/well. The positive control wells contain kinase, ATP, substrate and positive control compound in different concentrations. The sample compound wells contain kinase, ATP, substrate and the compounds to be tested in different concentrations.
(§6) Preparation of the reagents in need: 4×ATP: dilute ATP 4 times with assay buffer to obtain a working solution; 4× substrate: dilute Poly ([…]: tyrosine) 4 times with assay buffer to obtain a working solution; 2.5×EGFR kinase: dilute EGFR kinase 2.5 times with assay buffer to obtain a working solution.
(§7) Kinase reaction: Add 10× compounds to the assay plate in a 384-well plate layout, 1 μL/well. For the HPE and ZPE wells, equal volume (1 μL/well) of 10% DMSO was added to the 384-well assay plate; Add 2.5×EGFR kinase into the assay plate in 384-well plate layout, 4 μL/well. For HPE and ZPE wells, an equal volume (4 μL/well) of assay buffer was added to the 384-well assay plate; Centrifuge the assay plate with 1000 rpm for 1 min to mix them; Pre-incubate the assay plate for 30 min at 30° C.; Mix equal volume of 4×ATP and 4× substrate to obtain 2×ATP-substrate mixture which serves as a reaction mixture for the determination of EGFR activity; Add 2×ATP-substrate mixture to the assay plate, 5 μL/well; Centrifuge the assay plate at 1000 rpm for 1 min to mix them; Incubate the assay plate for one hour at 30° C.; Add Kinase glo plus was to each well (10 μL/well), and then incubated the assay plate for 20 min at 27° C.; Read luminescence signal with Envision plate reader.
(In Kinase-Glo more light means more ATP remaining.)

Assay [2] has as its target EGFR (T790M) (Homo sapiens (Human), UniProt P00533, T790M). As to the kind of experiment: Kinase-Glo luminescent kinase assay, EGFR tyrosine kinase inhibitory activity (T790M). The class given is biochemical. As to the method:
as §1, §2, §3, §4, §5, §6, §7

Sequence of EGFR (T790M) (P00533 25-1210 T790M): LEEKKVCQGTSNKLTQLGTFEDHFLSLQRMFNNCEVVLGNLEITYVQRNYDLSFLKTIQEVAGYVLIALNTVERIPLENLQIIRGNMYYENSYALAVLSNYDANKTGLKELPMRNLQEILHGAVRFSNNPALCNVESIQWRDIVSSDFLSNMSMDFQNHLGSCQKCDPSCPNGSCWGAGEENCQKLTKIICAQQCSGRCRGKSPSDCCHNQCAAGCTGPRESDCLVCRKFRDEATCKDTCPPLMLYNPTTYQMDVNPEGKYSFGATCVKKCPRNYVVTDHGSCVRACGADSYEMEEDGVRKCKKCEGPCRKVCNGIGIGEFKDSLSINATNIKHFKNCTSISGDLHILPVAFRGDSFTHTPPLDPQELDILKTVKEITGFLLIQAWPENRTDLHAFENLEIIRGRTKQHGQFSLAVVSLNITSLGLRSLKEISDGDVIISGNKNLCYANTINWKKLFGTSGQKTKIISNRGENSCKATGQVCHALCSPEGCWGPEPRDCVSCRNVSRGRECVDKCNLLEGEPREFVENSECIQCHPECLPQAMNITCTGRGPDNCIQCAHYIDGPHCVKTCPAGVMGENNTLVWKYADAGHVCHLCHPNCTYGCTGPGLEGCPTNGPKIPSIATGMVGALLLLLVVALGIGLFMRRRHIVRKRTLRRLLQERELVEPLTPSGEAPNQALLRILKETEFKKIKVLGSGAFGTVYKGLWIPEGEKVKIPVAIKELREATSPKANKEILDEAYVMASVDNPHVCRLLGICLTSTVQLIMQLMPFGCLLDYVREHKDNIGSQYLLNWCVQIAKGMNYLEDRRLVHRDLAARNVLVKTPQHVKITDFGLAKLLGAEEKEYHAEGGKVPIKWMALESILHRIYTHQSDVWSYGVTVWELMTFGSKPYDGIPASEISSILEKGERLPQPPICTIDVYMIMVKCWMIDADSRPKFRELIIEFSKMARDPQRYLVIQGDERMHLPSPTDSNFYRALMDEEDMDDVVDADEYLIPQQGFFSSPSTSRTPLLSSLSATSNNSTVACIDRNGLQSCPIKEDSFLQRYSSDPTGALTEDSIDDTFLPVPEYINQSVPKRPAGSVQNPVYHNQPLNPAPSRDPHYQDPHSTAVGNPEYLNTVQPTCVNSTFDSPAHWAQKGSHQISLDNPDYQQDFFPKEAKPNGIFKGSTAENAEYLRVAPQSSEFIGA

One may read the IC50 as the concentration needed to halve the response being measured. Take `C#Cc1cccc(Nc2ncnc3cc(OC(C)COC)c4c(c23)OCCO4)c1` (centres unmarked) [Compound I-26, N-(3-Ethynylphenyl)-5-(1-methoxypropan-2-yloxy)-2,3-dihydro-[1,4]dioxino[2,3-f]quinazolin-10-amine]: the IC50 is less than 0.1 µM in assay [1] and less than 0.3 µM in assay [2].

With `COCCOc1cc2ncnc(Nc3ccc(C)c(C#N)c3)c2c2c1OCCO2` [Compound I-14, 5-((5-(2-Methoxyethoxy)-2,3-dihydro-[1,4]dioxino[2,3-f]quinazolin-10-yl)amino)-2-methylbenzonitrile], the IC50 in assay [1] and in assay [2] was less than 1 µM in each case.

For the compound `CCOC(C)Oc1cc2ncnc(Nc3ccc(C)c([N+](=O)[O-])c3)c2c2c1OCCO2` (centres unmarked) [Compound I-18, 5-(1-Ethoxyethoxy)-N-(4-methyl-3-nitrophenyl)-2,3-dihydro-[1,4]dioxino[2,3-f]quinazolin-10-amine], the results for the IC50 in assay [1] and in assay [2] were less than 0.3 µM and less than 1 µM, respectively.

With `CC(C)Oc1cc2ncnc(Nc3ccc(OCc4cccc(F)c4)c(Cl)c3)c2c2c1OCCO2` [Compound I-27, N-(3-Chloro-4-((3-fluorobenzyl)oxy)phenyl)-5-isopropoxy-2,3-dihydro-[1,4]dioxino[2,3-f]quinazolin-10-amine], the IC50 in assay [1] is less than 0.2 µM; in assay [2] it was less than 1 µM.

As to `CCOc1cc2ncnc(Nc3cccc([N+](=O)[O-])c3)c2c2c1OCCO2` [Compound I-38, 5-Ethoxy-N-(3-nitrophenyl)-2,3-dihydro-[1,4]dioxino[2,3-f]quinazolin-10-amine], the IC50 in assay [1] and in assay [2] was less than 0.05 µM in each case.

Take `COc1ccc(Nc2ncnc3cc4c(cc23)N(CCCN2CCOCC2)C(=O)CO4)cc1OC` [II-5, 4-((3,4-Dimethoxyphenyl)amino)-6-(3-morpholinopropyl)-6H-[1,4]oxazino[3,2-g]quinazolin-7(8H)-one]: the IC50 is less than 0.2 µM in assay [1] and less than 1 µM in assay [2].

On to `CC(C)Oc1cc2ncnc(Nc3ccc(F)c(C#N)c3)c2c2c1OCCO2` [Compound I-5, 2-Fluoro-5-((5-isopropoxy-2,3-dihydro-[1,4]dioxino[2,3-f]quinazolin-10-yl)amino)benzonitrile], for which the IC50 in assay [1] is less than 0.3 µM; in assay [2], less than 1 µM.

With `C#Cc1cccc(Nc2ncnc3cc(OC)c4c(c23)OCCO4)c1` [Compound I-28, N-(3-Ethynylphenyl)-5-methoxy-2,3-dihydro-[1,4]dioxino[2,3-f]quinazolin-10-amine], the IC50 in assay [1] was less than 0.05 µM; in assay [2] it was less than 1 µM.

`CCOC(C)Oc1cc2ncnc(Nc3ccc(OC)c([N+](=O)[O-])c3)c2c2c1OCCO2` (centres unmarked) [Compound I-15, 5-(1-Ethoxyethoxy)-N-(4-methoxy-3-nitrophenyl)-2,3-dihydro-[1,4]dioxino[2,3-f]quinazolin-10-amine]: the IC50 in assay [1] and in assay [2] was less than 1 µM throughout.

With `CCOC(C)Oc1cc2ncnc(Nc3ccc(Cl)c([N+](=O)[O-])c3)c2c2c1OCCO2` (centres unmarked) [Compound I-17, N-(4-Chloro-3-nitrophenyl)-5-(1-ethoxyethoxy)-2,3-dihydro-[1,4]dioxino[2,3-f]quinazolin-10-amine], the figures for the IC50 in assay [1] and in assay [2] were less than 0.3 µM and less than 1 µM, respectively.

On to `COCCOc1cc2ncnc(Nc3ccc(OC)c([N+](=O)[O-])c3)c2c2c1OCCO2` [Compound I-9, N-(4-Methoxy-3-nitrophenyl)-5-(2-methoxyethoxy)-2,3-dihydro-[1,4]dioxino[2,3-f]quinazolin-10-amine], for which the IC50 in assay [1] and in assay [2] was less than 1 µM each time.

Consider `Fc1ccc(Nc2ncnc3cc(OCC4CCCO4)c4c(c23)OCCO4)cc1Cl` (centres unmarked) [Compound I-40, N-(3-Chloro-4-fluorophenyl)-5-((tetrahydrofuran-2-yl)methoxy)-2,3-dihydro-[1,4]dioxino[2,3-f]quinazolin-10-amine], for which the IC50 is less than 0.05 µM in assay [1] and less than 1 µM in assay [2].

As to `Cc1ccc(Nc2ncnc3cc(OC(C)C)c4c(c23)OCCO4)cc1C#N` [Compound I-6, 5-((5-Isopropoxy-2,3-dihydro-[1,4]dioxino[2,3-f]quinazolin-10-yl)amino)-2-methylbenzonitrile], the IC50 in assay [1] was less than 0.4 µM; in assay [2], less than 1 µM.

Turning to `CC(C)Oc1cc2ncnc(Nc3ccc(Cl)c([N+](=O)[O-])c3)c2c2c1OCCO2` [Compound I-4, N-(4-Chloro-3-nitrophenyl)-5-isopropoxy-2,3-dihydro-[1,4]dioxino[2,3-f]quinazolin-10-amine], the IC50 in assay [1] is less than 0.1 µM; in assay [2], less than 1 µM.

In the case of `COc1ccc(Nc2ncnc3cc(OC(C)C)c4c(c23)OCCO4)cc1[N+](=O)[O-]` [Compound I-1, 5-Isopropoxy-N-(4-methoxy-3-nitrophenyl)-2,3-dihydro-[1,4]dioxino[2,3-f]quinazolin-10-amine], the IC50 in assay [1] and in assay [2] was less than 1 µM in each case.

In the case of `Cc1ccc(Nc2ncnc3cc4c(cc23)N(CCCN2CCOCC2)C(=O)CO4)cc1Cl` [II-3, 4-((3-Chloro-4-methylphenyl)amino)-6-(3-morpholinopropyl)[1,4]oxazino[3,2-g]quinazolin-7(8H)-one], the IC50 in assay [1] is less than 0.2 µM; in assay [2], less than 1 µM.

For `CCOC(C)Oc1cc2ncnc(Nc3ccc(F)c(C#N)c3)c2c2c1OCCO2` (centres unmarked) [Compound I-19, 5-((5-(1-Ethoxyethoxy)-2,3-dihydro-[1,4]dioxino[2,3-f]quinazolin-10-yl)amino)-2-fluoro-benzonitrile], the IC50 in assay [1] is less than 0.3 µM; in assay [2] it was less than 1 µM.

As to `COCCOc1cc2ncnc(Nc3ccc(F)cc3)c2c2c1OCCO2` [Compound I-32, N-(4-fluorophenyl)-5-(2-methoxyethoxy)-2,3-dihydro-[1,4]dioxino[2,3-f]quinazolin-10-amine], the IC50 in assay [1] is less than 0.2 µM; in assay [2] it was less than 1 µM.

For `COCCOc1cc2ncnc(Nc3ccc(F)c(C#N)c3)c2c2c1OCCO2` [Compound I-13, 2-Fluoro-5-((5-(2-methoxyethoxy)-2,3-dihydro-[1,4]dioxino[2,3-f]quinazolin-10-yl)amino)benzonitrile], the IC50 was less than 0.5 µM in assay [1] and less than 1 µM in assay [2].

With `Cc1ccc(Nc2ncnc3cc(OC(C)C)c4c(c23)OCCO4)cc1[N+](=O)[O-]` [Compound I-3, 5-Isopropoxy-N-(4-methyl-3-nitrophenyl)-2,3-dihydro-[1,4]dioxino[2,3-f]quinazolin-10-amine], the IC50 in assay [1] was less than 0.2 µM; in assay [2], less than 1 µM.

As to `COCCOc1cc2ncnc(Nc3ccc(C)c([N+](=O)[O-])c3)c2c2c1OCCO2` [Compound I-11, 5-(2-Methoxyethoxy)-N-(4-methyl-3-nitrophenyl)-2,3-dihydro-[1,4]dioxino[2,3-f]quinazolin-10-amine], the IC50 in assay [1] is less than 0.1 µM; in assay [2], less than 1 µM.

With `CCOC(C)Oc1cc2ncnc(Nc3ccc(C)c(C#N)c3)c2c2c1OCCO2` (centres unmarked) [Compound I-20, 5-((5-(1-Ethoxyethoxy)-2,3-dihydro-[1,4]dioxino[2,3-f]quinazolin-10-yl)amino)-2-methylbenzonitrile], the IC50 in assay [1] and in assay [2] was less than 1 µM throughout.

For `COc1cccc(Nc2ncnc3cc4c(cc23)N(CCCN2CCOCC2)C(=O)CO4)c1` [II-4, 4-((3-Methoxyphenyl)amino)-6-(3-morpholinopropyl)-6H-[1,4]oxazino[3,2-g]quinazolin-7(8H)-one], the IC50 was less than 0.2 µM in assay [1] and less than 1 µM in assay [2].

`CC(C)Oc1cc2ncnc(Nc3ccc(F)c([N+](=O)[O-])c3)c2c2c1OCCO2` [Compound I-2, N-(4-Fluoro-3-nitrophenyl)-5-isopropoxy-2,3-dihydro-[1,4]dioxino[2,3-f]quinazolin-10-amine]: the IC50 is less than 0.1 µM in assay [1] and less than 1 µM in assay [2].

Regarding `COCCOc1cc2ncnc(Nc3ccc(Cl)c([N+](=O)[O-])c3)c2c2c1OCCO2` [Compound I-12, N-(4-Chloro-3-nitrophenyl)-5-(2-methoxyethoxy)-2,3-dihydro-[1,4]dioxino[2,3-f]quinazolin-10-amine], the IC50 in assay [1] was less than 0.05 µM; in assay [2], less than 1 µM.
